Experimental data reported in US20230158178A1, “Radionuclide Tracers of 1-Amino-3,4-Difluorocyclopentane-1-Carboxylic Acid, Derivatives, and Uses Thereof” (Emory University, priority 2020, published 2023).

Key:
[1] = system: human DU145 androgen-independent prostate carcinoma; test: Cell uptake study in DU145 prostate carcinoma cells; assay type: cell-based; details: for uptake in DU145 cells: no inhibitor, 30 min incubation
Description: (§1) Consistent with this reasoning, having knowledge of which systems take part in transporting a particular amino acid is of value, since this information can be used to determine which tumor types the amino acid may be useful for imaging. To establish which systems are responsible for transporting a particular AA, cell uptake inhibition studies are performed. In these studies, a known number of cells of a certain line are suspended in a media containing a known quantity of an amino acid radiotracer and incubated for a set period to allow for the amino acid to be transported into the cells. […] The radioactivity present within the cells after rinsing is measured and expressed as a normalized percent uptake of the radioactive amino acid dose that the cells were initially exposed to. This experiment establishes the degree to which a given amino acid is taken up by a group of cells in the absence of any perturbing conditions and serves as the control.
(§2) With this information in hand, the cell uptake experiment is performed again, but in the presence of an excess of a substrate known to have a high affinity for a particular transport system. The excess substrate floods the targeted system, competitively inhibiting the transport of other amino acids. Consequently, any reduction in cellular uptake of radioactivity relative to the control experiment is assumed to arise from loss of amino acid transport by the inhibited system. It follows that if inhibition of a transport system results in reduced uptake of a given amino acid, then that system contributes to cellular transport of the amino acid. Furthermore, the degree to which the system participates in transport can be roughly evaluated by the percent loss (inhibition) of amino acid uptake relative to the control. In addition to delineating transport mechanisms, cell uptake studies provide insight into the avidity of a particular cell line for an amino acid.
(§3) The potential of [^18F]3.09, [^18F]3.23, and [^18F]3.33 as PET radiotracers were evaluated for imaging brain and prostate cancer, cell uptake studies with rat 9 L gliosarcoma, human U87 ΔEGFR glioblastoma, and human DU145 androgen-independent prostate carcinoma. Uptake data for anti-3-[^18F]-FACBC were also collected under the same conditions for comparison. Alpha-(methylamino)isobutyric acid (MeAIB) was used as a competitive inhibitor for system A transport, 2-amino-bicyclo[2.2.1]heptane2-carboxylic acid (BCH) was used to inhibit system L, and the combination of alanine, serine, and cysteine was used for inhibition of system ASC.

[2] = system: 9 L, U87 ΔEGFR, and DU145 cell; test: Cell uptake and uptake inhibition, stated across all cell lines tested; assay type: cell-based, rat; human; details: for relative cell uptake (in words): all cell lines; for mechanism of transport (in words): each of the cell lines tested
Description: Data are presented as percent ligand uptake of the initial dose per 0.5 million cells (% ID/5×10^5 cells).
as §1, §2, §3

[3] = system: intracranial 9 L gliosarcoma tumors; test: MicroPET biodistribution in Fischer rats bearing intracranial 9 L gliosarcoma tumors; assay type: in vivo; details: for tumor uptake at final time point: final time point / final scan; for background uptake in healthy brain: normal brain, range over the study
Description: To gain insight into the biodistribution profiles of [^18F]3.09, [^18F]3.23, and [^18F]3.33 each was administered to Fischer rats bearing intracranial 9 L gliosarcoma tumors, which have been used extensively as models for human glioma. With each tracer, uptake in 9 L tumors was higher than in normal brain tissue at all time points, peaking near the 12.5-minute time point. Tumor uptake was highest with [^18F]3.09 and stayed fairly constant at 2.0-2.2% injected dose per gram of tissue (% ID/g) throughout the course of the study. […] While absolute uptake in tumors was highest with [^18F]3.09, background uptake in healthy brain was also highest with this stereoisomer, ranging from 0.59-0.96% % ID/g, compared to uptake values of 0.39-0.46 and 0.28-0.36% ID/g obtained with [^18F]3.23 and [^18F]3.33, respectively.
(§4) [^18F]trans-3,4-DFACPC ([^18F]3.23) was prepared in 1.3% decay corrected radiochemical yield in greater than 99% radio-chemical purity. Competitive uptake inhibition studies with 9 L gliosarcoma, human U87 ΔEGFR glioblastoma, and human DU145 androgen-independent prostate carcinoma cells to establish the mechanism of transport of [^18F]3.23, as well as its affinity for each cell line. The biodistribution of [^18F]3.23 was assessed in normal and intracranial 9 L gliosarcoma bearing rats via micro-PET imaging.

[4] = MicroPET biodistribution in normal Fischer rats (bladder accumulation); assay type: in vivo; details: post injection
Description: DFACPC, and anti-3-[^18F] FACBC.
as §4
MicroPET biodistribution studies in normal Fischer rats established that bladder accumulation of [^18F]3.23 is delayed until at least 10 minutes post injection. In rats bearing intracranial 9 L gliosarcoma, [^18F]3.23 gave tumor uptake values of up to 1.2% injected dose per gram (% ID/g) and tumor to contralateral brain tissue ratios of up to 2.8.

[5] = system: human U87 ΔEGFR glioblastoma; test: Cell uptake inhibition study in U87 ΔEGFR glioblastoma cells; assay type: cell-based
Description: as §1, with “This experiment establishes the degree to which a given amino acid is taken up by a group of cells in the absence of any perturbing conditions and serves as the control.” left out
With this information in hand, the cell uptake experiment is performed again, but in the presence of an excess of a substrate known to have a high affinity for a particular transport system. […] Consequently, any reduction in cellular uptake of radioactivity relative to the control experiment is assumed to arise from loss of amino acid transport by the inhibited system. […] Furthermore, the degree to which the system participates in transport can be roughly evaluated by the percent loss (inhibition) of amino acid uptake relative to the control. […]

rat 9 L gliosarcoma = details: 9 L gliosarcoma cells; cited from earlier work
[6] = 4.5-minute time point (highest for the tracer)
[7] = range over the three cell lines

N[C@]1(C(=O)O)C[C@@H](F)[C@H]([18F])C1 (racemic) [[^18F]3.23, trans-[^18F]-1-amino-3,4-difluorocyclopentane-1-carboxylic acid]
avidity of DU145 cells (in words) [1]: substantially greater avidity | uptake in DU145 cells, fold higher than [^18F]-FACBC [1]: 1.7 fold | uptake in DU145 cells, fold higher than the best cis-3,4-DFACPC analog [1]: ~2 fold | uptake in DU145 cells [1]: 34 % ID/5×10^5 cells | relative cell uptake (in words) [2]: greater uptake than [^18F]3.33 in all cell lines | mechanism of transport (in words) [2]: transported primarily via system L with some transport occurring via system ASC | tumor uptake at final time point ([3]; 9 L tumor): 1.1 % ID/g | L/N ratio ([3]; 12.5-minute mark (maximum)): 2.8 | L/N ratio ([3]; 52.5 minutes): 2.4 | tumor to contralateral brain tissue ratios ([3]; maximum (up to)): up to 2.8 | background uptake in healthy brain [3]: 0.39-0.46 % ID/g | bladder accumulation delayed until [4]: at least 10 minutes

N[C@]1(C(=O)O)C[C@@H](F)[C@@H]([18F])C1 [[^18F]3.09, anti-cis-[^18F]-1-amino-3,4-difluorocyclopentane-1-carboxylic acid]
inhibition of uptake by BCH [5]: 50% | inhibition of uptake by alanine, serine, and cysteine [5]: 78% | uptake in DU145 cells [1]: 18 % ID/5×10^5 cells | relative cell uptake (in words) [2]: greater uptake than [^18F]3.33 in all cell lines | L/N ratio [3, 6]: 3.5 | tumor uptake, injected dose per gram of tissue ([3]; 9 L tumor, throughout the course of the study): 2.0-2.2 % ID/g | background uptake in healthy brain [3]: 0.59-0.96 % ID/g

N[C@@]1(C(=O)O)C[C@@H]([18F])[C@@H](F)C1 [[^18F]3.33, syn-cis-[^18F]-1-amino-3,4-difluorocyclopentane-1-carboxylic acid]
L/N ratio [3, 6]: 4.3 | tumor uptake at final time point ([3]; 9 L tumor): 0.8 % ID/g | tumor uptake, peak value ([3]; 9 L tumor, peak / maximum): 1.2 % ID/g | background uptake in healthy brain [3]: 0.28-0.36 % ID/g

N[C@]1(C(=O)O)CCC[C@@H]1[18F] [anti-2-[^18F]-FACPC, anti-1-amino-2-[^18F] fluorocyclopentane-1-carboxylic acid]
inhibition of uptake by BCH (system L) (rat 9 L gliosarcoma): 71% | inhibition of uptake by MeAIB (system A) (rat 9 L gliosarcoma): 38% | inhibition of uptake by alanine, serine, and cysteine (system ASC) (rat 9 L gliosarcoma): 65%

N[C@]1(C(=O)O)C[C@@H](F)C1 [anti-3-[^18F]-FACBC, anti-1-amino-3-[^18F]fluorocyclobutane-1-carboxylic acid]
uptake in DU145 cells [1]: 20 % ID/5×10^5 cells | uptake levels, percent of the initial dose per 0.5 million cells ([2]; across all cell lines tested, no inhibitor, 30 min incubation): 6-20 % ID/5×10^5 cells | mechanism of transport (in words) [2]: primarily a substrate for system ASC | inhibition of uptake by BCH (system L) [2, 7]: 36-56% | inhibition of uptake by alanine, serine, and cysteine (system ASC) [2, 7]: 73-87%
